For test [1], the target named is T1, human jejunal NK2 receptor (Homo sapiens, UniProt P21452).
T1 construct: expressed in transfected cells; host or cells: HSKR-1 cells (mouse 3T3 fibroblasts)
T1 sequence (P21452 1-398): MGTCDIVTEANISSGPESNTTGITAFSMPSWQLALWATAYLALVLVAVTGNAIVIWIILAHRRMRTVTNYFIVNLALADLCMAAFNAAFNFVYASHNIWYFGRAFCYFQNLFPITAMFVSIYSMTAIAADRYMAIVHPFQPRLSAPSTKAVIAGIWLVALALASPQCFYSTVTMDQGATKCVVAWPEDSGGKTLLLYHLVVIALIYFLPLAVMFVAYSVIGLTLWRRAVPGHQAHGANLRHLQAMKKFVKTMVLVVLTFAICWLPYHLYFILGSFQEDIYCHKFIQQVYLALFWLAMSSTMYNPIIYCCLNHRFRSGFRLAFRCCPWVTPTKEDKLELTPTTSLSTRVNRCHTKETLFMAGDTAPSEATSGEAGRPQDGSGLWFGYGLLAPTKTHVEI
The experiment in a line: Antagonism of iodinated neurokinin A binding to NK2 receptor, HSKR-1 cells (mouse 3T3 fibroblasts expressing the human jejunal NK2 receptor). Particulars: for IC50: NK-2 IC50, HSKR-1 cells, 125I-neurokinin A, mean of several experiments. The protocol: (§1) ANTAGONISM OF IODINATED TACHYKININ BINDING TO NK1 AND NK2
(§2) RECEPTORS BY PUTATIVE ANTAGONISTS
(§3) The NK1 receptor affinity of proposed tachykinin antagonists was evaluated in guinea pig lungs (Keystone Biologicals, Cleveland, OH), affinity for the NK2 receptor evaluated in HSKR-1 cells (which are mouse 3T3 fibroblasts expressing the human jejunal NK2 receptor) and NK-3 receptor affinity was evaluated in freshly collected guinea pig cerebral cortex. Tissues or cells were homogenized with a Polytron in 15 volumes of 50 mM Tris-HCl buffer (pH 7.4, 4° C.) and centrifuged. The pellet was resuspended in Tris-HCl buffer and was centrifuged; the pellet was washed twice by resuspension. The final pellet was resuspended at a concentration of 40 mg/ml for tissues (guinea pig lung and cerebral cortex) and 20 mg/ml for cells in incubation buffer and remained at room temperature for at least 15 min prior to use. Receptor binding was initiated by addition of 250 ul membrane preparation in duplicate to 0.1 nM of the following radioligands: ^125 I-Bolton Hunter Lys-3 labeled substance P; ^125 iodohistidyl-1-neurokinin A; and ^125 I-Bolton Hunter labeled Lys-4 eledoisin in a final volume of 500 ul of buffer containing 50 mM Tris-HCl (pH 7.4 at room temperature), 0.1% bovine serum albumin, 2 mM MnCl2, 40 ug/ml bacitracin, 4 μg/ml leupeptin and chymostatin, 1 μM thiorphan and various doses of the putative tachykinin antagonists. Incubations were performed at room temperature for 90 min (NK1 receptor assays) or 2 hr (NK2 and NK3 receptor assays); binding was terminated by addition of 50 mM Tris-HCl buffer (pH 7.4, 4° C.) and filtration under vacuum through GF/B filters presoaked with 0.1% polyethyleneimine (NK1 receptor assays) or 0.5% bovine serum albumin (NK2 and NK3 receptor assays). Filter bound radioactivity was quantitated in a gamma counter. Nonspecific binding was defined as binding in the presence of 1 μM substance P, neurokinin A, or eledoisin. Specific binding was calculated by subtracting nonspecific binding from total binding. Competition of iodinated SP, NKA, or eledoisin binding by test compounds or standards was expressed as a percentage of this maximum competition. IC50 values (concentration required to inhibit 50% of receptor binding) were generated for each of the test compounds by nonlinear regression using an iterative curve fitting program (GraphPAD Inplot, San Diego, Calif.).

Another test concerns the target T2, NK1 receptor (Cavia porcellus, UniProt P30547).
T2 construct: evaluated in guinea pig lungs; tissue Keystone Biologicals, Cleveland, OH; host or cells: guinea pig lung
The experiment in a line: Antagonism of iodinated substance P binding to NK1 receptor, guinea pig lung. The settings on record: for IC50: NK-1 IC50, guinea pig lung, 125I-substance P, mean of several experiments. The protocol: as §1, §2, §3

T2 sequence (P30547 whole entry): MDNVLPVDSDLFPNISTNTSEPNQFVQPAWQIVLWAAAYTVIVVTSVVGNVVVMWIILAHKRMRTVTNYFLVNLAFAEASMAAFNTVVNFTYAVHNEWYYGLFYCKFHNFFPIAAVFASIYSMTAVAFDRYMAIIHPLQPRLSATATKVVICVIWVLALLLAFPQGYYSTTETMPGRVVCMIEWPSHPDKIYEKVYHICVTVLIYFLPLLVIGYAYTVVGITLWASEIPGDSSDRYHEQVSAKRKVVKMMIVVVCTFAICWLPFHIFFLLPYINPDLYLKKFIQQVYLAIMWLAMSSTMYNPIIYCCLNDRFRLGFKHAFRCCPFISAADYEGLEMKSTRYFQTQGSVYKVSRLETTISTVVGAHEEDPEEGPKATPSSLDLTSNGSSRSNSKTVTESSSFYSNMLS

`COc1cc(C(=O)N2CCC(CCN3CCC(C(N)=O)(c4ccccc4)CC3)(c3ccc(Cl)c(Cl)c3)C2)cc(OC)c1OC` (stereo not drawn) [Example 3, 1-[2-[3-(3,4-dichloro-phenyl)-1-(3,4,5-trimethoxy-benzoyl)-pyrrolidin-3-yl]-ethyl]-4-phenyl-piperidine-4-carboxylic acid amide]: in test [1] (HSKR-1 cells), the “affinity for NK2 receptors (in words)” value is recorded as “high affinity”. The “affinity for NK1 receptors (in words)” value at NK1 receptor (guinea pig lung) is “high affinity”.

Take `COc1cc(C(=O)N2CCC(CCN3CCC(C(N)=O)(c4ccccc4)CC3)(c3ccc(Cl)c(Cl)c3)C2)cc(OC)c1OC.Cl` (single isomer, unassigned; (+)) [Example 20A, (+)-1-[2-[3-(3,4-dichloro-phenyl)-1-(3,4,5-trimethoxy-benzoyl)-pyrrolidin-3-yl]-ethyl]-4-phenyl-piperidine-4-carboxylic acid amide hydrochloride]: the IC50 in test [1] amounted to 7.93 nM; at NK1 receptor, 2.99 nM.

In the case of `COc1cc(C(=O)N2CCC(CCN3CCC(C(N)=O)(c4ccccc4)CC3)(c3ccc(Cl)c(Cl)c3)C2)cc(OC)c1OC` (single isomer, unassigned; (+)) [Example 20, (+)-1-[2-[3-(3,4-dichloro-phenyl)-1-(3,4,5-trimethoxy-benzoyl)-pyrrolidin-3-yl]-ethyl]-4-phenylpiperidine-4-carboxylic acid amide], the IC50 in test [1] came out at 8.4 nM; at NK1 receptor it was 4.65 nM.

Usually IC50 stands for the concentration that inhibits the measured activity by half.
